Experimental data as given in patent US5521196A, “5-HT1F agonists for the treatment of migraine” (Eli Lilly and Company, priority 1994, dated 1996).
Structures can show the parent of a compound that is named as a salt.

The molecules below were run against T1, 5-HT1F receptor (Homo sapiens, UniProt P30939) (assay: biochemical). Conditions: Table I; displacement of 4.5-5.5 nM [3H]5-HT, 37° C., 30 minutes; read-out: 5-HT1F BINDING Ki.
T1 sequence (P30939 1-366): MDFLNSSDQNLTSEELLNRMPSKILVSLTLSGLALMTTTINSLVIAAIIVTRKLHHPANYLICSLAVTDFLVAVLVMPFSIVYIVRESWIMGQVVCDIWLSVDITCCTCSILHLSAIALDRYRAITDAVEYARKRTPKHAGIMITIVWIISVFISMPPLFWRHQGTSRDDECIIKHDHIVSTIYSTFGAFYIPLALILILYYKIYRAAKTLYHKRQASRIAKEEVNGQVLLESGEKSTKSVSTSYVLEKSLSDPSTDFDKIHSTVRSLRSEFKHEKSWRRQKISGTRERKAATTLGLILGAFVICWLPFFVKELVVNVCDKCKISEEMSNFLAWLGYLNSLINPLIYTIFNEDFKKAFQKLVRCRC
Work on Fc1ccc2[nH]cc(C3CCN(CCc4cnn(C5CCCCC5)c4)CC3)c2c1 [Example 17, 5-fluoro-3-<1-<2-<1-cyclohexyl-1H-pyrazol-4-yl>ethyl>-4-piperidinyl>-1H-indole oxalate] yielded a Ki of 33.2 nM.
Clc1ccc2[nH]cc(C3CCN(CCCc4cn[nH]c4)CC3)c2c1 [Example 54, 5-chloro-3-<1-<3-<1H-pyrazol-4-yl>propyl>-4-piperidinyl>-1H-indole oxalate] showed a Ki of 42 nM.
With Cc1ccc(-n2cc(CCN3CCC(c4c[nH]c5ccc(Cl)cc45)CC3)cn2)cc1 [Example 43, 5-chloro-3-<1-<2-<1-(4-methylphenyl)-1H-pyrazol-4-yl>ethyl>-4-piperidinyl>- 1H-indole] the Ki was 37.7 nM.
CCCn1cc(CCN2CCC(c3c[nH]c4ccc(F)cc34)CC2)cn1 [Example 13, 5-fluoro-3-<1-<2-<1-propyl-1H-pyrazol-4-yl>ethyl>-4-piperidinyl>-1H-indoleoxalate] was tested, and the Ki was 6 nM.
For Fc1ccc2[nH]cc(C3CCN(CCc4cccnc4)CC3)c2c1 [Example 47, 5-fluoro-3-<1-<2-<pyridin-3-yl>ethyl>-4-piperidinyl>-1H-indolehydrochloride monohydrate], the Ki was 115 nM.
For CC(C)n1cc(CCN2CC=C(c3c[nH]c4ccc(Cl)cc34)CC2)cn1 [Example 55, 5-chloro-3-<1,2,3,6-tetrahydro-1-<2-<1-(1-ethylmethyl)-1H-pyrazol-4-yl>ethyl>-4-pyridinyl>-1H-indole], the Ki was 7.4 nM.
Work on Clc1ccc2[nH]cc(C3CCN(CCc4cnn(-c5ccccc5)c4)CC3)c2c1 [Example 25, 5-chloro-3-<1-<2-<1-phenyl-1H-pyrazol-4-yl>ethyl>-4-piperidinyl>-1H-indoleoxalate] yielded a Ki of 6.9 nM.
For COc1ccccc1-n1cc(CCN2CCC(c3c[nH]c4ccc(Cl)cc34)CC2)cn1 [Example 39, 5-chloro-3-<1-<2-<1-(2-methoxyphenyl)-1H-pyrazol-4-yl>ethyl>-4-piperidinyl>-1H-indole oxalate], the Ki was 63.5 nM.
Clc1ccc2[nH]cc(C3CCN(CCc4cnn(-c5ccc(Br)cc5)c4)CC3)c2c1 [Example 37, 5-chloro-3-<1-<2-<1-(4-bromophenyl)-1H-pyrazol-4-yl>ethyl>-4-piperidinyl>-1H-indole] gave a Ki of 65.6 nM.
In the case of Fc1ccc2[nH]cc(C3CCN(CCc4cc[nH]c4)CC3)c2c1 [Example 44, 5-fluoro-3-<1-<2-<1H-pyrrol-3-yl>ethyl>-4-piperidinyl>-1H-indole oxalate], the Ki is reported as 53.9 nM.
For Clc1ccc2[nH]cc(C3CCN(CCc4cnn(CC5CC5)c4)CC3)c2c1 [Example 21, 5-chloro-3-<1-<2-<1-cyclopropylmethyl-1H-pyrazol-4-yl>ethyl>-4-piperidinyl>-1H-indole hydrochloride], the Ki was 14.5 nM.
For Brc1ccc2[nH]cc(C3CCN(CCc4cnn(C5CCCCC5)c4)CC3)c2c1 [Example 19], the Ki was 49.4 nM.
Fc1ccc(-n2cc(CCN3CCC(c4c[nH]c5ccc(Cl)cc45)CC3)cn2)cc1 [Example 31, 5-chloro-3-<1-<2-<1-(4-fluorophenyl)-1H-pyrazol-4-yl>ethyl>-4-piperidinyl>- 1H-indole oxalate] was tested, and the Ki was 11.5 nM.
In the case of Clc1ccc2[nH]cc(C3CCN(CCc4cnn(-c5ccc(I)cc5)c4)CC3)c2c1 [Example 38, 5-chloro-3-<1-<2-<1-(4-iodophenyl)-1H-pyrazol-4-yl>ethyl>-4-piperidinyl>-1H-indole oxalate], the Ki is reported as 77.4 nM.
Work on Fc1ccc2[nH]cc(C3CCN(CCc4ccncc4)CC3)c2c1 [Example 46, 5-fluoro-3-<1-<2-<pyridin-4-yl>ethyl>-4-piperidinyl>-1H-indoledihydrochloride] yielded a Ki of 5.3 nM.
Clc1ccc2[nH]cc(C3CCN(CCc4cnn(-c5ccccc5Cl)c4)CC3)c2c1 [Example 32, 5-chloro-3-<1-<2-<1-(2-chlorophenyl)-1H-pyrazol-4-yl>ethyl>-4-piperidinyl>- 1H-indole oxalate] was tested, and the Ki was 44.1 nM.
Molecule COc1ccc(-n2cc(CCN3CCC(c4c[nH]c5ccc(Cl)cc45)CC3)cn2)cc1 [Example 40, 5-chloro-3-<1-<2-<1-(4-methoxyphenyl)-1H-pyrazol-4-yl>ethyl>-4-piperidinyl>-1H-indole] has a Ki of 12.7 nM.
COc1ccc2[nH]cc(C3CCN(CCc4cnn(C)c4)CC3)c2c1 [Example 5, 5-methoxy-3-<1-<2-<1-methyl-1H-pyrazol-4-yl>ethyl>-4-piperidinyl>-1H-indoleoxalate] showed a Ki of 9.9 nM.
Cn1cc(CCN2CCC(c3c[nH]c4ccc(O)cc34)CC2)cn1 [Example 49, 5-hydroxy-3-<1-<2-<1-methyl-1H-pyrazol-4-yl>ethyl>-4-piperidinyl>-1H-indoleoxalate] showed a Ki of 1.4 nM.
With Clc1ccc2[nH]cc(C3CCN(CCc4cnn(C5CCCCC5)c4)CC3)c2c1 [Example 18] the Ki was 34 nM.
COc1ccc2[nH]cc(C3CCN(CCc4cnn(C(C)C)c4)CC3)c2c1 [Example 10, 5-methoxy-3-<1-<2-<1-(1-methylethyl)-1H-pyrazol-4-yl>ethyl>-4-piperidinyl>- 1H-indole oxalate] gave a Ki of 6.2 nM.
For Brc1ccc2[nH]cc(C3CCN(CCc4cnn(-c5ccccc5)c4)CC3)c2c1 [Example 26, 5-bromo-3-<1-<2-<1-phenyl-1H-pyrazol-4-yl>ethyl>-4-piperidinyl>-1H-indoleoxalate], the Ki was 13.8 nM.
CC(C)n1cc(CCN2CCC(c3c[nH]c4ccc(Cl)cc34)CC2)cn1 [Example 8, 5-chloro-3-<1-<2-<1-(1-methylethyl)-1H-pyrazol-4-yl>ethyl>-4-piperidinyl>-1H-indole] was tested, and the Ki was 4.1 nM.
c1ccc(-n2cc(CCN3CCC(c4c[nH]c5ccccc45)CC3)cn2)cc1 [Example 23, 3-<1-<2-<1-phenyl-1H-pyrazol-4-yl>ethyl>-4-piperidinyl>-1H-indolehydrochloride] was tested, and the Ki was 4.3 nM.
Work on Fc1ccc2[nH]cc(C3CCN(CCc4cn[nH]c4)CC3)c2c1 [Example 48, 5-fluoro-3-<1-<2-<1H-pyrazol-4-yl>ethyl>-4-piperidinyl>-1H-indoledihydrochloride] yielded a Ki of 8.1 nM.
In the case of Fc1ccc2[nH]cc(C3CCN(CCc4cnn(Cc5ccccc5)c4)CC3)c2c1 [Example 22, 5-fluoro-3-<1-<2-<1-benzyl-1H-pyrazol-4-yl>ethyl>-4-piperidinyl>-1H-indolehydrochloride], the Ki is reported as 52.5 nM.
In the case of Fc1ccc2[nH]cc(C3CCN(CCc4cnn(-c5ccccc5)c4)CC3)c2c1 [Example 24, 5-fluoro-3-<1-<2-<1-phenyl-1H-pyrazol-4-yl>ethyl>-4-piperidinyl>-1H-indoleoxalate], the Ki is reported as 5.5 nM.
Fc1cccc(-n2cc(CCN3CCC(c4c[nH]c5ccc(Cl)cc45)CC3)cn2)c1 [Example 30, 5-chloro-3-<1-<2-<1-(3-fluorophenyl)-1H-pyrazol-4-yl>ethyl>-4-piperidinyl>- 1H-indole oxalate] was tested, and the Ki was 51 nM.
In the case of Clc1ccc2[nH]cc(C3CCN(CCc4cnn(-c5ccccc5Br)c4)CC3)c2c1 [Example 35, 5-chloro-3-<1-<2-<1-(2-bromophenyl)-1H-pyrazol-4-yl>ethyl>-4-piperidinyl>-1H-indole oxalate], the Ki is reported as 48.4 nM.
In the case of Fc1ccc2[nH]cc(C3CCN(CCc4ccccn4)CC3)c2c1 [Example 45, 5-fluoro-3-<1-<2-<pyridin-2-yl>ethyl>-4-piperidinyl>-1H-indoledihydrochloride], the Ki is reported as 27 nM.
Work on Cn1cc(CCN2CCC(c3c[nH]c4ccc(Cl)cc34)CC2)cn1 [Example 3, 5-chloro-3-<1-<2-<1-methyl-1H-pyrazol-4-yl>ethyl>-4-piperidinyl>-1H-indolehydrochloride] yielded a Ki of 1.7 nM.
For COc1ccc2[nH]cc(C3CCN(CCc4cnn(-c5ccccc5)c4)CC3)c2c1 [Example 27, 5-methoxy-3-<1-<2-<1-phenyl-1H-pyrazol-4-yl>ethyl>-4-piperidinyl>-1H-indoleoxalate], the Ki was 9.5 nM.
In the case of Oc1ccc2[nH]cc(C3CCN(CCc4cnn(-c5ccccc5)c4)CC3)c2c1 [Example 52, 5-hydroxy-3-<1-<2-<1-phenyl-1H-pyrazol-4-yl>ethyl>-4-piperidinyl>-1H-indole], the Ki is reported as 2.4 nM.
Cc1cccc(-n2cc(CCN3CCC(c4c[nH]c5ccc(Cl)cc45)CC3)cn2)c1 [Example 42, 5-chloro-3-<1-<2-<1-(3-methylphenyl)-1H-pyrazol-4-yl>ethyl>-4-piperidinyl>- 1H-indole oxalate] gave a Ki of 43.2 nM.
c1ccc2c(C3CCN(CCc4cnn(C5CCCCC5)c4)CC3)c[nH]c2c1 [Example 16, 3-<1-<2-<1-cyclohexyl-1H-pyrazol-4-yl>ethyl>-4-piperidinyl>-1H-indoleoxalate] showed a Ki of 43.8 nM.
Molecule CCCn1cc(CCN2CCC(c3c[nH]c4ccc(Cl)cc34)CC2)cn1 [Example 14, 5-chloro-3-<1-<2-<1-propyl-1H-pyrazol-4-yl>ethyl>-4-piperidinyl>-1H-indoleoxalate] has a Ki of 5.7 nM.
Clc1cccc(-n2cc(CCN3CCC(c4c[nH]c5ccc(Cl)cc45)CC3)cn2)c1 [Example 33, 5-chloro-3-<1-<2-<1-(3-chlorophenyl)-1H-pyrazol-4-yl>ethyl>-4-piperidinyl>- 1H-indole oxalate] showed a Ki of 85.5 nM.
With Oc1ccc2[nH]cc(C3CCN(CCc4cnn(C5CCCCC5)c4)CC3)c2c1 [Example 51, 5-hydroxy-3-<1-<2-<1-cyclohexyl-1H-pyrazol-4-yl>ethyl>-4-piperidinyl>-1H-indole oxalate] the Ki was 4.4 nM.
CC(C)n1cc(CCN2CCC(c3c[nH]c4ccc(O)cc34)CC2)cn1 [Example 50, 5-hydroxy-3-<1-<2-<1-(1-methylethyl)-1H-pyrazol-4-yl>ethyl>-4-piperidinyl>-1H-indole] was tested, and the Ki was 2.3 nM.

Same assay, conditions: read-out: 5-HT1F BINDING Ki
CC(C)n1cc(CCN2CCC(c3c[nH]c4ccc(C(N)=O)cc34)CC2)cn1 [Example 11, 5-carboxamido-3-<1-<2-<1-(1-methylethyl)-1H-pyrazol-4-yl>ethyl>-4-piperidinyl>-1H-indole] gave a Ki of 10.3 nM.
